Reference: the supplement of paper PMC10307832

What was measured:
Assay in all cases: relative viability (nuclei count vs DMSO), 5 days (fraction); higher = more cells survive
[1] = compound: CC1=C(C(=O)N2C=CSC2=N1)CCN3CCC(=C(C4=CC=CC=C4)C5=CC=C(C=C5)F)CC3 + CC(C)C[C@H](NC(=O)[C@H](Cc1ccccc1)NC(=O)c1cnccn1)B(O)O [Bortezomib] (partner 0.002 µM)
In short: (§1)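 Relative viability was taken as the ratio of nuclei in treated wells to nuclei in vehicle wells. Lung cancer cell lines in 1536-well plates received compounds by pin tool one day after seeding, either one drug alone or a fixed anchor-drug dose plus five library-drug doses (not always all listed) in √10 steps. Nuclei were counted on 4× images after 5 days of treatment, and values are medians of duplicate plates.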

[2] = compound: CC1=C(C(=O)N2C=CSC2=N1)CCN3CCC(=C(C4=CC=CC=C4)C5=CC=C(C=C5)F)CC3 + Nc1ncn([C@H]2C[C@H](O)[C@@H](CO)O2)c(=O)n1 [Decitabine] (partner 2 µM)
In short: as §1

[3] = compound: CC1=C(C(=O)N2C=CSC2=N1)CCN3CCC(=C(C4=CC=CC=C4)C5=CC=C(C=C5)F)CC3 + Cc1cc(Nc2cc(N3CCN(C)CC3)nc(Sc3ccc(NC(=O)C4CC4)cc3)n2)n[nH]1 [Tozasertib] (partner 0.1 µM)
In short: as §1

[4] = compound: CC1=C(C(=O)N2C=CSC2=N1)CCN3CCC(=C(C4=CC=CC=C4)C5=CC=C(C=C5)F)CC3 + NC(=O)Nc1cc(-c2cccc(F)c2)sc1C(=O)N[C@H]1CCCNC1 [AZD7762] (partner 0.2 µM)
In short: as §1

| Cell Line | relative viability ([1]; first compound 0.08 µM) | relative viability ([1]; first compound 0.253 µM) | relative viability ([1]; first compound 0.8 µM) | relative viability ([1]; first compound 2.53 µM) | relative viability ([1]; first compound 8 µM) | relative viability ([2]; first compound 0.08 µM) | relative viability ([2]; first compound 0.253 µM) | relative viability ([2]; first compound 0.8 µM) | relative viability ([2]; first compound 2.53 µM) | relative viability ([2]; first compound 8 µM) | relative viability ([3]; first compound 0.08 µM) | relative viability ([3]; first compound 0.253 µM) | relative viability ([3]; first compound 2.53 µM) | relative viability ([3]; first compound 8 µM) | relative viability ([4]; first compound 0.08 µM) | relative viability ([4]; first compound 0.253 µM) | relative viability ([4]; first compound 0.8 µM) | relative viability ([4]; first compound 2.53 µM) | relative viability ([4]; first compound 8 µM) | relative viability ([3]; first compound 0.8 µM) |
| --- | --- | --- | --- | --- | --- | --- | --- | --- | --- | --- | --- | --- | --- | --- | --- | --- | --- | --- | --- | --- |
| NCI-H1299 | 1.07 | 1.04 | 1.04 | 1.02 | 0.702 |  |  |  |  |  |  |  |  |  |  |  |  |  |  |  |
| HCC-44 | 0.926 | 0.769 | 0.896 | 1.06 | 0.856 | 1.03 | 1.09 | 0.995 | 1.02 | 0.985 | 0.855 | 1.33 | 0.896 | 0.525 | 1.04 | 1.04 | 1.08 | 1.17 | 1.06 |  |
| IA-LM | 0.621 | 0.757 | 0.711 | 0.843 | 0.63 |  |  |  |  |  |  |  |  |  |  |  |  |  |  |  |
| NCI-H1915 | 1.02 | 0.864 | 1.1 | 0.971 | 0.472 | 0.305 | 0.277 | 0.265 | 0.253 | 0.257 | 0.438 | 0.442 | 0.432 | 0.318 | 0.714 | 0.802 | 0.662 | 0.75 | 0.518 | 0.444 |
| NCI-H596 | 1.09 | 1.02 | 0.903 | 0.887 | 0.989 | 0.908 | 0.939 | 1.06 | 1.01 | 0.761 | 0.757 | 0.757 | 0.877 | 0.516 | 1.18 | 0.913 | 1.2 | 1.08 | 0.965 | 1.14 |
| EPLC-272H |  | 0.888 | 0.888 | 1.07 | 0.921 | 0.431 | 0.312 | 0.37 | 0.396 | 0.376 | 0.225 | 0.25 | 0.203 | 0.515 | 0.45 | 0.198 | 0.182 | 0.211 | 0.179 | 0.269 |
| NCI-H23 | 0.705 | 1.08 | 1.1 | 0.974 | 0.545 | 0.355 | 0.308 | 0.332 | 0.323 | 0.119 | 0.365 | 0.386 | 0.307 | 0.316 | 0.279 | 0.269 | 0.234 | 0.248 | 0.229 | 0.214 |
| 201T | 1.16 | 1.12 | 1.08 | 1.16 | 1.13 | 0.884 | 0.89 | 0.845 | 0.9 | 0.804 | 0.976 | 1.02 | 0.973 | 0.739 | 0.718 | 0.513 | 0.579 | 0.621 | 0.586 | 0.952 |
| NCI-H2085 | 1.04 | 1.02 | 1.07 | 1.07 | 0.878 | 0.553 | 0.563 | 0.504 | 0.573 | 0.559 | 0.896 | 0.735 | 0.844 | 0.702 | 1.06 | 1.29 | 0.92 | 1.03 | 0.89 | 0.747 |
| NCI-H2228 | 0.939 | 0.928 | 1.25 | 1.17 | 0.64 |  |  |  |  |  | 0.278 | 0.237 | 0.232 | 0.282 |  |  |  |  |  | 0.227 |
| BEN | 0.76 | 0.757 | 0.864 | 0.828 | 0.534 | 0.807 | 0.703 | 0.702 | 0.737 | 0.708 | 0.48 | 0.493 | 0.529 | 0.551 | 0.732 | 0.677 | 0.638 | 0.638 | 0.651 | 0.493 |
| HCC-366 |  | 1.14 | 1.18 | 1.04 | 0.308 | 0.389 | 0.318 | 0.324 | 0.394 | 0.243 | 0.103 | 0.123 | 0.0901 | 0.0622 | 0.302 | 0.317 | 0.25 | 0.23 | 0.211 | 0.103 |
| SK-MES-1 |  |  |  |  |  | 0.572 | 0.391 | 0.375 | 0.461 | 0.353 | 0.922 | 0.971 | 1.08 | 0.601 |  |  |  |  |  | 0.862 |
| CAL-12T |  | 0.745 | 0.843 | 1.03 | 0.733 |  |  |  |  |  | 0.316 | 0.304 | 0.302 | 0.255 | 0.605 | 0.751 | 0.576 | 0.699 | 0.503 | 0.311 |
| NCI-H1666 | 0.83 | 0.762 | 0.924 | 0.815 | 0.695 | 0.714 | 0.786 | 0.678 | 0.873 | 0.616 | 0.596 | 0.591 | 0.642 | 0.493 | 0.787 | 0.819 | 0.847 | 0.946 | 0.673 | 0.655 |
| NCI-H2087 | 0.836 | 0.795 | 1.02 | 1.02 | 0.589 | 0.245 | 0.236 | 0.255 | 0.286 | 0.191 | 0.298 | 0.245 | 0.242 | 0.23 | 1.21 | 1.36 | 1.58 | 1.24 | 0.506 | 0.276 |
| LK-2 |  |  |  |  |  | 0.316 | 0.226 | 0.341 | 0.339 | 0.248 | 0.176 | 0.188 | 0.161 | 0.174 | 0.496 | 0.304 | 0.56 | 0.349 | 0.289 | 0.172 |
| UMC-11 | 0.793 | 0.609 | 0.731 | 0.861 | 0.595 | 0.591 | 0.714 | 0.58 | 0.633 | 0.53 | 0.208 | 0.225 | 0.212 | 0.202 |  |  |  |  |  | 0.194 |
| HCC-827 | 0.975 | 0.843 | 1.01 | 1.11 | 0.987 | 0.285 | 0.335 | 0.308 | 0.33 | 0.322 | 0.43 | 0.396 | 0.472 | 0.399 | 0.16 | 0.214 | 0.236 | 0.224 | 0.209 | 0.389 |
